{"source": "patent US12552792B2", "about": "“Solid forms of an FGFR inhibitor and processes for preparing the same” (Incyte Corporation, priority 2018, dated 2026)", "assay": "Competitive slurry experiments with mixed Compound 1 polymorphs (XRPD)", "assay_type": "physicochemical", "details": "for Solid State Form after competitive slurry: saturated Form I solution + 5 mg each of Form I through Form XXVI, stirred overnight, XRPD; for Competitive slurry result (form by XRPD): DCM/MeOH (9:1, 0.6 mL), 5 mg each of Form I through Form XXVI", "protocol": "To evaluate the transformation of solid forms of Compound 1, competitive slurry experiments were performed as follows. To the saturated solution of Form I in the solvent as listed in Table 11 was added Form I (5 mg), then 5 mg each of Form II through Form XXVI.\nThe slurry was stirred overnight, filtered and analyzed by XRPD.\nA competitive slurry experiment was conducted in dichloromethane/methanol (9/1) according to the procedure in Table 12. The mixture of forms (Form I through Form XXVI) was converted to Form II after 15 min as shown by XRPD at various time points including 15 mins, 1 h, 18 h and 3 days, which indicated the Form II was consistently obtained."}
{"smiles": "CCN1C(=O)N(c2c(F)c(OC)cc(OC)c2F)Cc2cnc3[nH]c(CN4CCOCC4)cc3c21", "note": "[Compound 1, 3-(2,6-difluoro-3,5-dimethoxyphenyl)-1-ethyl-8-(morpholin-4-ylmethyl)-1,3,4,7-tetrahydro-2H-pyrrolo[3′,2′:5,6]pyrido[4,3-d]pyrimidin-2-one]", "values": [{"measurement": "Solid State Form after competitive slurry", "setting": "Acetonitrile (1.7 mL)", "value": "Form I"}, {"measurement": "Competitive slurry result (form by XRPD)", "setting": "stirred for 15 min", "value": "Form II"}, {"measurement": "Competitive slurry result (form by XRPD)", "setting": "stirred for 60 min", "value": "Form II"}, {"measurement": "Competitive slurry result (form by XRPD)", "setting": "stirred for 18 h", "value": "Form II"}, {"measurement": "Competitive slurry result (form by XRPD)", "setting": "stirred for 3 days", "value": "Form II"}, {"measurement": "Solid State Form after competitive slurry", "setting": "Ethanol (1.7 mL)", "value": "Form I"}, {"measurement": "Solid State Form after competitive slurry", "setting": "Iso-propanol (1.7 mL)", "value": "Form I"}]}
